From patent US20230150980A1, “COLLAGEN 1 TRANSLATION INHIBITORS AND METHODS OF USE THEREOF” (Anima Biotech Inc., priority 2020, published 2023)

Test system: collagen 1
Test: WI-38 collagen 1 inhibition assay (anti-Collagen I immunofluorescence);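 also: minus sign means inactive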
Assay type: cell-based
Conditions: cellular EC50, WI-38 human lung fibroblasts, values are LogEC50 classes
Description: WI-38 cells (ATCC® CCL-75™) were maintained in MEM EAGLE (NEAA) W. GLUTAMIN (Biological Industries, Cat. 06-1040-15-1A) containing 10% fetal bovine serum (FBS) and 1% Penicillin-Streptomycin Solution. To synchronize the cells (cell cycle synchronization) prior to induction of collagen synthesis, the cells were starved using DMEM-low glucose supplemented with 0.25% FBS for two hours and then without FBS for 24 hours. To induce collagen synthesis, the cells were treated with a collagen induction cocktail for the indicated time. Compounds were added with induction.
Cells in 96-well or 384-well plates were fixed for 20 min in 4% paraformaldehyde (PFA, ENCO, Cat. sc-281692). Following two washes with 1×PBS, cells were treated with hydrogen peroxide (Acros, Cat: 7722-84-1) for 10 minutes and then washed twice with 1×PBS. Cells were then incubated over-night at 4° C. with Anti-Collagen I (Sigma-Aldrich, Cat: C 2456) antibody and washed three times with 1×PBS. Cell were then incubated with a suitable secondary fluorescently-tagged antibody and nuclei stained with DAPI, for 1 hour, and then washed 3 times with 1×PBS.
Cell images were taken with Operetta (Perkin Elmer, USA), a wide-field fluorescence microscope at 20× magnification. After acquisition, the images were transferred to Columbus software (Perkin-Elmer) for image analysis. In Columbus, cells were identified by their nucleus, using the “Find Nuceli” module and cytoplasm was detected based on the secondary antibody channel. Subsequently, the fluorescent signal was enumerated in the identified cell region. Data was exported to a data analysis and visualization software, Tibco Spotfire, USA.

SMILES | COL1 Efficacy (LogEC50)
COCCOCc1cncnc1N1CCN(Cc2cc3ccccc3[nH]2)CC1 [compound 287, 2-((4-(5-((2-methoxyethoxy)methyl)pyrimidin-4-yl)piperazin-1-yl)methyl)-1H-indole] | −
Cn1cc(N2CCN(Cc3cc4ccccc4[nH]3)CC2)nn1 [compound 288, 2-((4-(1-methyl-1H-1,2,3-triazol-4-yl)piperazin-1-yl)methyl)-1H-indole] | ++ (++: −5 to −6)
CCc1cncnc1N1CCN(Cc2nc3ccc(COCCOC)cc3[nH]2)CC1 [compound 289, 2-((4-(5-ethylpyrimidin-4-yl)piperazin-1-yl)methyl)-6-((2-methoxyethoxy)methyl)-1H-benzo[d]imidazole] | +++ (+++: <−6)
CCc1cncnc1N1CCN(Cc2nc3ccc(OCCOC)cc3[nH]2)CC1 [compound 290, 2-((4-(5-ethylpyrimidin-4-yl)piperazin-1-yl)methyl)-6-(2-methoxyethoxy)-1H-benzo[d]imidazole] | ++ (++: −5 to −6)
CCc1cncnc1N1CCN(Cc2cc3ccc(COCCOC)cc3[nH]2)CC1 [compound 291, 2-((4-(5-ethylpyrimidin-4-yl)piperazin-1-yl)methyl)-6-((2-methoxyethoxy)methyl)-1H-indole] | +++ (+++: <−6)
CCc1cncnc1N1CCN(Cc2cc3ccc(OCCOC)cc3[nH]2)CC1 [compound 292, 2-((4-(5-ethylpyrimidin-4-yl)piperazin-1-yl)methyl)-6-(2-methoxyethoxy)-1H-indole] | ++ (++: −5 to −6)
Cc1ncnc(N2CCN(Cc3nc4c(F)cccc4o3)CC2)c1C [compound 293, 2-((4-(5,6-dimethylpyrimidin-4-yl)piperazin-1-yl)methyl)-4-fluorobenzo[d]oxazole] | ++ (++: −5 to −6)
Cc1ncnc(N2CCN(Cc3nc4c(C(F)(F)F)cccc4o3)CC2)c1C [compound 295, 2-((4-(5,6-dimethylpyrimidin-4-yl)piperazin-1-yl)methyl)-4-(trifluoromethyl)benzo[d]oxazole] | +++ (+++: <−6)
Cc1ncnc(N2CCN(Cc3nc4cc(F)ccc4o3)CC2)c1C [compound 297, 2-((4-(5,6-dimethylpyrimidin-4-yl)piperazin-1-yl)methyl)-5-fluorobenzo[d]oxazole] | ++ (++: −5 to −6)
Cc1ncnc(N2CCN(Cc3nc4cc(C(F)(F)F)ccc4o3)CC2)c1C [compound 299, 2-((4-(5,6-dimethylpyrimidin-4-yl)piperazin-1-yl)methyl)-5-(trifluoromethyl)benzo[d]oxazole] | +++ (+++: <−6)
Cc1ncnc(N2CCN(Cc3nc4ccc(F)cc4o3)CC2)c1C [compound 301, 2-((4-(5,6-dimethylpyrimidin-4-yl)piperazin-1-yl)methyl)-6-fluorobenzo[d]oxazole] | +++ (+++: <−6)
Cc1ncnc(N2CCN(Cc3nc4ccc(Cl)cc4o3)CC2)c1C [compound 302, 6-chloro-2-((4-(5,6-dimethylpyrimidin-4-yl)piperazin-1-yl)methyl)benzo[d]oxazole] | +++ (+++: <−6)
Cc1ncnc(N2CCN(Cc3nc4ccc(C(F)(F)F)cc4o3)CC2)c1C [compound 303, 2-((4-(5,6-dimethylpyrimidin-4-yl)piperazin-1-yl)methyl)-6-(trifluoromethyl)benzo[d]oxazole] | +++ (+++: <−6)
Cc1ncnc(N2CCN(Cc3nc4ccc(C(F)F)cc4o3)CC2)c1C [compound 304, 6-(difluoromethyl)-2-((4-(5,6-dimethylpyrimidin-4-yl)piperazin-1-yl)methyl)benzo[d]oxazole] | +++ (+++: <−6)
Cc1ncnc(N2CCN(Cc3nc4cccc(F)c4o3)CC2)c1C [compound 305, 2-((4-(5,6-dimethylpyrimidin-4-yl)piperazin-1-yl)methyl)-7-fluorobenzo[d]oxazole] | ++ (++: −5 to −6)
